Structures are written as SMILES. pIC50: −log10 of the molar value.

In this assay the target is Phosphatidylinositol 3-kinase regulatory subunit alpha/4,5-bisphosphate 3-kinase catalytic subunit delta isoform (Homo sapiens, UniProt P27986+O00329). The experiment in a line: Inhibition of human full length PI3K p110delta/p85alpha using phosphatidylinositol […] as substrate measured after 30 mins by TR-FRET assay.
Chain of Phosphatidylinositol 3-kinase regulatory subunit alpha/4,5-bisphosphate 3-kinase catalytic subunit delta isoform (P27986 whole entry, canonical isoform): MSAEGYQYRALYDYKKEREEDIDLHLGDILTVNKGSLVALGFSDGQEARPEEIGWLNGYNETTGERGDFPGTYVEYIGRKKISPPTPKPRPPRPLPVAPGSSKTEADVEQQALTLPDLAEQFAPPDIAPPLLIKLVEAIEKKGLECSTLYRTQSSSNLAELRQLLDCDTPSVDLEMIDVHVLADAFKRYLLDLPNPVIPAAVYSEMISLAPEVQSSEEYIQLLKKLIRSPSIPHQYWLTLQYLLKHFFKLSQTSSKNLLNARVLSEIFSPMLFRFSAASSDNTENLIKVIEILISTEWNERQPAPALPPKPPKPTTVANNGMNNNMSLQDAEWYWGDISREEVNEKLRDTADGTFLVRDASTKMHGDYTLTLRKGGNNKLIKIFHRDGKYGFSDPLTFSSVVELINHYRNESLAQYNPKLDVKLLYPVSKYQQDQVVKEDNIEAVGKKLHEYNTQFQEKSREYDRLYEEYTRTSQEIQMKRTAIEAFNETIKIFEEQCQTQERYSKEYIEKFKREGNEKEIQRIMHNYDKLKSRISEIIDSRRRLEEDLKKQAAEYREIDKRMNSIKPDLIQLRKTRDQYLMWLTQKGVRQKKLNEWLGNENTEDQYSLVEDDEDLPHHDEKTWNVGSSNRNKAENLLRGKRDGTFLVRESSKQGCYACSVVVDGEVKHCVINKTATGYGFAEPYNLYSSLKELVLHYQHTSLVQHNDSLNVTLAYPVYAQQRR
Chain of Phosphatidylinositol 3-kinase regulatory subunit alpha/4,5-bisphosphate 3-kinase catalytic subunit delta isoform (O00329 whole entry, canonical isoform): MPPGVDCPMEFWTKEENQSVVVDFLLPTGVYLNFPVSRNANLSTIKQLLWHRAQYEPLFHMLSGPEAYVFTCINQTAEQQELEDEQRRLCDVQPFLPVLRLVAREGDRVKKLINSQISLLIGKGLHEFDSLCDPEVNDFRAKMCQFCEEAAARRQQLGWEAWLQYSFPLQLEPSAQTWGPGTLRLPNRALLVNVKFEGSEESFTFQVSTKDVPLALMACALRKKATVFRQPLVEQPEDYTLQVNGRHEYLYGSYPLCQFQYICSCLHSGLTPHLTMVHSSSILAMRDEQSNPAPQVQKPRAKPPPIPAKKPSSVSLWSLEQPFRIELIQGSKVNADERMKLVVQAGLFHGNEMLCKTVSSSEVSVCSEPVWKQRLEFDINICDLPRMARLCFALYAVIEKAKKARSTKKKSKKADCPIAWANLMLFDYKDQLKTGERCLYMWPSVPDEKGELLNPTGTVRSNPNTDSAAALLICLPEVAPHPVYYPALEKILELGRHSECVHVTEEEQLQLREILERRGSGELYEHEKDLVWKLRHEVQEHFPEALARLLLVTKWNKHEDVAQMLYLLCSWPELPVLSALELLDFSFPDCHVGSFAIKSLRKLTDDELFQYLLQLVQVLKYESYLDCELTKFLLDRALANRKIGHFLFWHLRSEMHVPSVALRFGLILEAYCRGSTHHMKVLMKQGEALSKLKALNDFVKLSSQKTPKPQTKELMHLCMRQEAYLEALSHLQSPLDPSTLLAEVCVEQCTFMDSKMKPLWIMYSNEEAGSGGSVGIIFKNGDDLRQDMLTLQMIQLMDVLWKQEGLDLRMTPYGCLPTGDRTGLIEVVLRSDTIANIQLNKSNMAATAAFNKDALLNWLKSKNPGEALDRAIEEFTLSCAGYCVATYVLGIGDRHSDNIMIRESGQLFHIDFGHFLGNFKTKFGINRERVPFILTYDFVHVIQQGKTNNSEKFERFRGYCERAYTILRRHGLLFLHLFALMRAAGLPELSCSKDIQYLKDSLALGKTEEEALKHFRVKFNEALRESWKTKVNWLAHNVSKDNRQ
A word on the pIC50: it is −log10 of the IC50, conventionally taken in molar units. High values mean a small IC50, low ones a large IC50. `COc1cncc(-n2c([C@H](C)Nc3nc(N)nc(N)c3C#N)nc3cccc(Cl)c3c2=O)c1` [US9221795, 14] showed a negative-log IC50 (pIC50) of 8.40. Compound `C[C@H](Nc1nc(N)nc(N)c1C#N)c1nc2c(F)ccc(Cl)c2c(=O)n1-c1cccnc1` [US9221795, 24] showed a negative-log IC50 (pIC50) of 9.40. The compound `C[C@H](Nc1nc(N)nc(N)c1C#N)c1nc2c(Cl)cccc2c(=O)n1-c1cccnc1` [US9221795, 22] gave a pIC50 of 8.22.

`C[C@H](Nc1nc(N)nc(N)c1C#N)c1nc2cccc(Cl)c2c(=O)n1-c1cncc(Cl)c1` [US9221795, 13] showed a pIC50 of 8.10. The pIC50 values of the last two compounds are within 0.2 log units of each other.

`C[C@H](Nc1nc(N)nc(N)c1C#N)c1nc2cccc(Cl)c2c(=O)n1-c1cncc(C2CC2)c1` [US9221795, 19]: the pIC50 is 8.30. Consider `C[C@H](Nc1nc(N)nc(N)c1C#N)c1nc2cccc(Cl)c2c(=O)n1-c1cccnc1` [US9221795, 1], for which the pIC50 is 9.22. Take `Cc1ccncc1-n1c([C@H](C)Nc2nc(N)nc(N)c2C#N)nc2cccc(Cl)c2c1=O` [US9221795, 40]: the pIC50 was 9.40.

With `C[C@H](Nc1nc(N)nc(N)c1C#N)c1nc2c(F)ccc(F)c2c(=O)n1-c1cccnc1` [US9221795, 25], the pIC50 was 8.10.
